We go through 20 molecules from US9586947B2, “Imidazoline derivatives, preparation methods thereof, and their applications in medicine” (priority 2012, dated 2017).

The subject of experiment [1] is LNCaP cells. In words: Proliferation inhibition of LNCaP cells (CCK-8). In kind it is cell-based. Particulars: Homo sapiens, 144 h, cultured 3 + 3 days, CCK-8, OD at 450 nm. As for the experimental part:
The following in vitro assay was performed to determine the activity of the compounds of the present invention for inhibiting the proliferation of LNCaP cells.
(1). Cell counting reagent CCK-8 (DOJINDO, CK04)
See experimental procedure from Test Example 1.
After LNCaP cells were cultured for 3 days, the culture medium, test compounds, blank group, and control group were renewed with half of the liquid volume, and were cultured for another 3 days. Then, all 96-well plates were mixed gently with 10 μl of CCK-8 and cultured in an incubator for 2-3 hours under the conditions of 37° C. and 5% CO2. The OD value per well was measured at 450 nm on a Victor3 microplate reader.
(§1) IC50 values were calculated from the data of the inhibition rates of the test compounds at various concentrations.

Experiment [2] has as its system PSA secretion of LNCaP cells. In words: Inhibitory activity on PSA secretion of LNCaP cells. Format: cell-based. The note with it: Homo sapiens, 96 h; LNCaP cells, 1 nM testosterone medium, 4 days of incubation, PSA kit OD450; read-out: IC50 (inhibition of PSA secretion of LNCaP cells). The procedure: The following in vitro assay was performed to determine the activity of the compounds of the present invention for inhibiting prostate specific antigen (PSA) secretion of LNCaP cells.
(11). Testosterone culture medium: RIPM 1640 culture medium, 10% CS-FBS, 1% Pen Strep, 1 nM testosterone
LNCaP cells were subcultured in cell culture medium, resuspended in active carbon culture medium, and then inoculated into a 96-well plate (100 μl/well) with an inoculation density of 5×10^4 cells/well.
The test compounds were dissolved in DMSO (dimethyl sulfoxide) and prepared as a 10 mM stock solution. When used, the stock solution was diluted with 5×DMSO and then diluted with a threefold gradient to obtain 8 gradient concentrations. Then, the 8 gradient concentrations were each diluted with 20× testosterone culture medium, in order to ensure DMSO concentration in each culture system was 0.5%. Diluted test compounds remained to be tested.
10 μl of diluted test compounds were added to a 96-well plate and mixed gently. 10 μl of 0.5% DMSO diluted with active carbon culture medium was added to the blank group, and 10 μl of 0.5% DMSO diluted with testosterone culture medium was added to the control group. The 96-well plate was cultured in an incubator under the conditions of 37° C. and 5% CO2.
After 4 days of incubation, 60 μl of cell cultural supernatants were collected, and the OD450 value per well was measured on a NOVO Star microplate reader using PSA kit (Abnova, KA0208).
as §1

Turning to `CC1(C)C(=O)N(c2ccc(C#N)c(C(F)(F)F)c2)C(=S)N1c1ccc(OC2CCNCC2)c(F)c1` [Example 19, 4-(3-(3-Fluoro-4-((piperidin-4-yl)oxy)phenyl)-4,4-dimethyl-5-oxo-2-thioxoimidazolidin-1-yl)-2-(trifluoromethyl)benzonitrile], the results for the IC50 in experiment [1] and in experiment [2] were 194 nM and 94 nM, respectively.

Consider `CN1CCC(Oc2ccc(N3C(=S)N(c4ccc(C#N)c(C(F)(F)F)c4)C(=O)C3(C)C)cc2F)CC1` [Example 20, 4-(3-(3-Fluoro-4-((1-methylpiperidin-4-yl)oxy)phenyl)-4,4-dimethyl-5-oxo-2-thioxoimidazolidin-1-yl)-2-(trifluoromethyl)benzonitrile], for which the IC50 in experiment [1] turned out to be 156 nM; in experiment [2], 57 nM.

For the molecule `CC1(C)C(=O)N(c2ccc(C#N)c(C(F)(F)F)c2)C(=S)N1c1ccc(O[C@@H]2CCOC2)nc1` [Example 21, (R)-4-(4,4-Dimethyl-5-oxo-3-(6-((tetrahydrofuran-3-yl)oxy)pyridin-3-yl)-2-thioxoimidazolidin-1-yl)-2-(trifluoromethyl)benzonitrile], the IC50 worked out at 92 nM in experiment [1] and 76 nM in experiment [2].

On to `CC1(C)C(=O)N(c2ccc(C#N)c(C(F)(F)F)c2)C(=S)N1c1ccc(OCCCS(C)(=O)=O)c(F)c1` [Example 22, 4-(3-(3-Fluoro-4-(3-(methylsulfonyl)propoxy)phenyl)-4,4-dimethyl-5-oxo-2-thioxoimidazolidin-1-yl)-2-(trifluoromethyl)benzonitrile], for which the IC50 in experiment [1] is 134 nM; in experiment [2], 21 nM.

Regarding `CC1(C)C(=O)N(c2ccc(C#N)c(C(F)(F)F)c2)C(=S)N1c1ccc(OC2CCS(=O)(=O)CC2)c(F)c1` [Example 23, 4-(3-(4-((1,1-Dioxidotetrahydro-2H-thiopyran-4-yl)oxy)-3-fluorophenyl)-4,4-dimethyl-5-oxo-2-thioxoimidazolidin-1-yl)-2-(trifluoromethyl)benzonitrile], the results for the IC50 in experiment [1] and in experiment [2] were 180 nM and 24 nM, respectively.

In the case of `CC1(C)C(=O)N(c2ccc(C#N)c(C(F)(F)F)c2)C(=S)N1c1ccc(O[C@H]2CCOC2)nc1` [Example 24, (S)-4-(4,4-Dimethyl-5-oxo-3-(6-((tetrahydrofuran-3-yl)oxy)pyridin-3-yl)-2-thioxoimidazolidin-1-yl)-2-(trifluoromethyl)benzonitrile], the figures for the IC50 in experiment [1] and in experiment [2] were 92 nM and 32 nM, respectively.

For `CC1(C)C(=O)N(c2ccc(C#N)c(C(F)(F)F)c2)C(=S)N1c1ccc(OCC2CCOC2)nc1` (stereo not shown) [Example 25, 4-(4,4-Dimethyl-5-oxo-3-(6-((tetrahydrofuran-3-yl)methoxy)pyridin-3-yl)-2-thioxoimidazolidin-1-yl)-2-(trifluoromethyl)benzonitrile], the IC50 in experiment [1] is 111 nM; in experiment [2] it was 31 nM.

For `CNC(=O)c1ccccc1Oc1ccc(N2C(=S)N(c3ccc(C#N)c(C(F)(F)F)c3)C(=O)C2(C)C)cc1F` [Example 26, 2-(4-(3-(4-Cyano-3-(trifluoromethyl)phenyl)-5,5-dimethyl-4-oxo-2-thioxoimidazolidin-1-yl)-2-fluorophenoxy)-N-methylbenzamide], the IC50 in experiment [1] was 201 nM; in experiment [2] it was 44 nM.

With `CC1(C)C(=O)N(c2ccc(C#N)c(C(F)(F)F)c2)C(=S)N1c1ccc(OC2CCNC2)c(F)c1` (stereo not shown) [Example 28, 4-(3-(3-Fluoro-4-((pyrrolidin-3-yl)oxy)phenyl)-4,4-dimethyl-5-oxo-2-thioxoimidazolidin-1-yl)-2-(trifluoromethyl)benzonitrile], the IC50 turned out to be 79 nM in experiment [1] and 82 nM in experiment [2].

In the case of `CN1CCC(Oc2ccc(N3C(=S)N(c4ccc(C#N)c(C(F)(F)F)c4)C(=O)C3(C)C)cc2F)C1` (stereo not shown) [Example 29, 4-(3-(3-Fluoro-4-((1-methylpyrrolidin-3-yl)oxy)phenyl)-4,4-dimethyl-5-oxo-2-thioxoimidazolidin-1-yl)-2-(trifluoromethyl)benzonitrile], the IC50 in experiment [1] worked out at 80 nM; in experiment [2] it was 85 nM.

`CC1(C)C(=O)N(c2ccc(C#N)c(C(F)(F)F)c2)C(=S)N1c1ccc(OC(F)F)nc1` [Example 30, 4-(3-(6-(Difluoromethoxy)pyridin-3-yl)-4,4-dimethyl-5-oxo-2-thioxoimidazolidin-1-yl)-2-(trifluoromethyl)benzonitrile]: the IC50 was 58 nM in experiment [1] and 17 nM in experiment [2].

As to `CNC(=O)COc1ccc(N2C(=S)N(c3ccc(C#N)c(C(F)(F)F)c3)C(=O)C2(C)C)cc1F` [Example 32, 2-(4-(3-(4-Cyano-3-(trifluoromethyl)phenyl)-5,5-dimethyl-4-oxo-2-thioxoimidazolidin-1-yl)-2-fluorophenoxy)-N-methylacetamide], the values for the IC50 in experiment [1] and in experiment [2] were 134 nM and 110 nM, respectively.

Turning to `CNC(=O)C1(COc2ccc(N3C(=S)N(c4ccc(C#N)c(C(F)(F)F)c4)C(=O)C3(C)C)cc2F)CC1` [Example 34, 1-((4-(3-(4-Cyano-3-(trifluoromethyl)phenyl)-5,5-dimethyl-4-oxo-2-thioxoimidazolidin-1-yl)-2-fluorophenoxy)methyl)-N-methylcyclopropanecarboxamide], the IC50 in experiment [1] amounted to 159 nM; in experiment [2] it was 51 nM.

Take `CC1(C)C(=O)N(c2ccc(C#N)c(Cl)c2)C(=S)N1c1ccc(OCC2(N)CC2)c(F)c1` [Example 35, 4-(3-(4-((1-Aminocyclopropyl)methoxy)-3-fluorophenyl)-4,4-dimethyl-5-oxo-2-thioxoimidazolidin-1-yl)-2-chlorobenzonitrile]: the results for the IC50 in experiment [1] and in experiment [2] were 277 nM and 57 nM, respectively.

For the molecule `CC(=O)N1CCC(Oc2ccc(N3C(=S)N(c4ccc(C#N)c(C(F)(F)F)c4)C(=O)C3(C)C)cc2F)C1` (stereo not shown) [Example 36, 4-(3-(4-((1-Acetylpyrrolidin-3-yl)oxy)-3-fluorophenyl)-4,4-dimethyl-5-oxo-2-thioxoimidazolidin-1-yl)-2-(trifluoromethyl)benzonitrile], the IC50 in experiment [1] is 115 nM; in experiment [2] it was 23 nM.

Take `CC1(C)C(=O)N(c2ccc(C#N)c(C(F)(F)F)c2)C(=S)N1c1ccc(OCC2(N)CC2)cc1` [Example 37, 4-(3-(4-((1-Aminocyclopropyl)methoxy)phenyl)-4,4-dimethyl-5-oxo-2-thioxoimidazolidin-1-yl)-2-(trifluoromethyl)benzonitrile]: the IC50 in experiment [1] stood at 63 nM; in experiment [2] it was 23 nM.

`CC1(C)C(=O)N(c2ccc(C#N)c(C(F)(F)F)c2)C(=S)N1c1ccc(OCC2(C#N)CC2)c(F)c1` [Example 39, 4-(3-(4-((1-Cyanocyclopropyl)methoxy)-3-fluorophenyl)-4,4-dimethyl-5-oxo-2-thioxoimidazolidin-1-yl)-2-(trifluoromethyl)benzonitrile]: the IC50 in experiment [1] stood at 256 nM; in experiment [2] it was 27 nM.

`CC1(C)C(=O)N(c2ccc(C#N)c(C(F)(F)F)c2)C(=S)N1c1ccc(OC2COC2)cc1` [Example 40, 4-(4,4-Dimethyl-3-(4-((oxetan-3-yl)oxy)phenyl)-5-oxo-2-thioxoimidazolidin-1-yl)-2-(trifluoromethyl)benzonitrile]: the results for the IC50 in experiment [1] and in experiment [2] were 196 nM and 29 nM, respectively.

As for `CC1(C)C(=O)N(c2ccc(C#N)c(C(F)(F)F)c2)C(=S)N1c1ccc(OC2COC2)c(F)c1` [Example 41, 4-(3-(3-Fluoro-4-((oxetan-3-yl)oxy)phenyl)-4,4-dimethyl-5-oxo-2-thioxoimidazolidin-1-yl)-2-(trifluoromethyl)benzonitrile], the IC50 in experiment [1] was determined as 283 nM; in experiment [2], 24 nM.

For `CC1(C)C(=O)N(c2ccc(C#N)c(C(F)(F)F)c2)C(=S)N1c1ccc(OCC(O)CO)cc1` (stereo not shown) [Example 48, 4-(3-(4-(2,3-Dihydroxypropoxy)phenyl)-4,4-dimethyl-5-oxo-2-thioxoimidazolidin-1-yl)-2-(trifluoromethyl)benzonitrile], the figures for the IC50 in experiment [1] and in experiment [2] were 281 nM and 37 nM, respectively.
